Molecular target: SAE (Homo sapiens (Human), UniProt Q9UBT2)
Test: In vitro inhibitory activity assay against SAE (SUMO-2/3 immunofluorescence in HCT116 cells)
Assay type: cell-based
Conditions: 6 h incubation, class symbols, read-out: SUMO IF IC50
In short: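 HCT116 cells treated with compounds for 6 h at 37 °C, then fixed, permeabilized and immunostained for SUMO-2/3 with FITC secondary detection. Fluorescence compared with DMSO control to give inhibition rate and IC50.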

SAE, sequence (Q9UBT2 whole entry): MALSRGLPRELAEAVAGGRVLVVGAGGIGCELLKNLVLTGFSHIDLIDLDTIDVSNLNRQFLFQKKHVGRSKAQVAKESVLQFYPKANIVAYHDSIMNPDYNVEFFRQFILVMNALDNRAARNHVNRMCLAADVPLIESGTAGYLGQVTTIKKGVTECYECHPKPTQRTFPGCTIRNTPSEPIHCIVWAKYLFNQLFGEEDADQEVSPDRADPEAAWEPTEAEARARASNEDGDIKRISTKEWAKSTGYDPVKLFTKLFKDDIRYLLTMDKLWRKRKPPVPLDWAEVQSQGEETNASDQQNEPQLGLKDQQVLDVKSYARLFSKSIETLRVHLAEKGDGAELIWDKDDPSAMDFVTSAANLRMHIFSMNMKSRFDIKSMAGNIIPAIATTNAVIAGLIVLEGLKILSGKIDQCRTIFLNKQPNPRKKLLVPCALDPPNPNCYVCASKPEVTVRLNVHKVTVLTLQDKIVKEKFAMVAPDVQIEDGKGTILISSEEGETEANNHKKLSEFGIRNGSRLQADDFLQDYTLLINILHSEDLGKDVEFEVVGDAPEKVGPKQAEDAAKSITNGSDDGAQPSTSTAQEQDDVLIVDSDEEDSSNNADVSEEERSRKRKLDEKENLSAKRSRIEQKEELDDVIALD
SAE, sequence (Q9UBE0 whole entry partner): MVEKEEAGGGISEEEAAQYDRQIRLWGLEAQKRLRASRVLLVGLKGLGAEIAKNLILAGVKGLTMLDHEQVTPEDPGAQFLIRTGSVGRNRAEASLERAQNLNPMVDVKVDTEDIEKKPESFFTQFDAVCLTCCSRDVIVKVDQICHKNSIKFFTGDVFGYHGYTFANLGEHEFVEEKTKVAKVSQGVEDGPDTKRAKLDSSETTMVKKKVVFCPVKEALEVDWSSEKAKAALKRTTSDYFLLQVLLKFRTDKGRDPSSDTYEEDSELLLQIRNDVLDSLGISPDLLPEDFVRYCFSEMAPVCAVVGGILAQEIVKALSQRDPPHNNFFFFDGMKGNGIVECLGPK

With `NS(=O)(=O)OC[C@H]1C[C@@H](Nc2ncncc2C(=O)c2cc3c(s2)COCC32NCCc3ccccc32)C[C@@H]1O` (stereo partly drawn) [Compound 13] as the compound, how does the IC50 read?
Its IC50 is over 200 nM.

Which IC50 does the source give for `Cc1cc2c(cc1Cl)[C@@]1(CCc3sc(C(=O)c4cncnc4N[C@@H]4C[C@H](COS(N)(=O)=O)[C@@H](O)C4)cc31)NCC2` [Compound 230] here?
Its IC50 is at most 50 nM.

For `COc1cc2c(cc1Cl)[C@@]1(CCCc3sc(C(=O)c4cncnc4N[C@@H]4C[C@H](COS(N)(=O)=O)[C@@H](O)C4)cc31)NCC2` [Compound 211], which IC50 is on record?
The IC50 was 50 to 200 nM.

Which IC50 does the source give for `N#Cc1ccc2c(c1)[C@@]1(CCCc3sc(C(=O)c4cncnc4N[C@@H]4C[C@H](COS(N)(=O)=O)[C@@H](O)C4)cc31)OCC2` [Compound 252] here?
The IC50 was at most 50 nM.

For `NS(=O)(=O)OC[C@H]1C[C@@H](Nc2ncncc2C(=O)c2cc3c(s2)CC[C@@]32OCCc3ccc(F)cc32)C[C@@H]1O` [Compound 284], which IC50 is on record?
The IC50 was over 200 nM.

For `N#Cc1cc2c(cc1Cl)C1(CCCc3sc(C(=O)c4cncnc4N[C@@H]4C[C@H](COS(N)(=O)=O)[C@@H](O)C4)cc31)NCC2` (stereo partly drawn) [Compound 30], which IC50 is on record?
The IC50 was 50 to 200 nM.

With `CN1Cc2sc(C(=O)c3cncnc3N[C@@H]3C[C@H](COS(N)(=O)=O)[C@@H](O)C3)cc2[C@]2(C1)OCCc1ccccc12` [Compound 255] as the compound, how does the IC50 read?
The IC50 was 50 to 200 nM.

How did the IC50 turn out when `NS(=O)(=O)OC[C@H]1C[C@@H](Nc2ncncc2C(=O)c2cc3c(s2)OCC32NCCc3ccc(Cl)cc32)C[C@@H]1O` (stereo partly drawn) [Compound 61] was run?
Its IC50 is 50 to 200 nM.

How did the IC50 turn out when `NS(=O)(=O)OC[C@H]1C[C@@H](Nc2ncncc2C(=O)c2cc3c(s2)CCC32NCCc3cc(Cl)c(Cl)cc32)C[C@@H]1O` (stereo partly drawn) [Compound 70] was run?
Its IC50 is 50 to 200 nM.

For `NS(=O)(=O)OC[C@H]1C[C@@H](Nc2ncncc2C(=O)c2cc3c(s2)CCC[C@]32NCCc3ccncc32)C[C@@H]1O` [Compound 214], which IC50 is on record?
Its IC50 is 50 to 200 nM.

How did the IC50 turn out when `NS(=O)(=O)OC[C@H]1C[C@@H](Nc2ncncc2C(=O)c2cc3c(s2)C=CCC32NCCc3ccc(Cl)cc32)C[C@@H]1O` (stereo partly drawn) [Compound 36] was run?
Its IC50 is at most 50 nM.

For `NS(=O)(=O)OC[C@H]1C[C@@H](Nc2ncncc2C(=O)c2cc3c(s2)CC=CC32NCCc3ccc(Cl)cc32)C[C@@H]1O` (stereo partly drawn) [Compound 37], which IC50 is on record?
Its IC50 is at most 50 nM.

For `NS(=O)(=O)OC[C@H]1C[C@@H](Nc2ncncc2C(=O)c2cc3c(s2)CCC[C@]32NCCc3cc(Cl)c(F)cc32)C[C@@H]1O` [Compound 213], which IC50 is on record?
Its IC50 is at most 50 nM.

How did the IC50 turn out when `CC1=C[C@@]2(NCCc3ccc(Cl)cc32)c2cc(C(=O)c3cncnc3N[C@@H]3C[C@H](COS(N)(=O)=O)[C@@H](O)C3)sc21` [Compound 158] was run?
Its IC50 is over 200 nM.

`NS(=O)(=O)OC[C@H]1C[C@@H](Nc2ncncc2C(=O)c2cc3c(s2)CC2(CC2)CC32NCCc3ccc(Cl)cc32)C[C@@H]1O` (stereo partly drawn) [Compound 151] was tested. Which IC50 did it give?
Its IC50 is at most 50 nM.

`NS(=O)(=O)OC[C@H]1C[C@@H](Nc2ncncc2C(=O)c2cc3c(s2)C(F)=C[C@@]32NCCc3ccc(Cl)cc32)C[C@@H]1O` [Compound 155] was tested. Which IC50 did it give?
The IC50 was over 200 nM.

With `N#Cc1ccc2c(c1)[C@@]1(CCc3sc(C(=O)c4cncnc4N[C@@H]4C[C@H](COS(N)(=O)=O)[C@@H](O)C4)cc31)NCC2` [Compound 54] as the compound, how does the IC50 read?
Its IC50 is 50 to 200 nM.

For `NS(=O)(=O)OC[C@H]1C[C@@H](Nc2ncncc2C(=O)c2cc3c(s2)CCCC32NCCc3cc(Cl)c(F)cc32)C[C@@H]1O` (stereo partly drawn) [Compound 33], which IC50 is on record?
Its IC50 is 50 to 200 nM.

With `NS(=O)(=O)OC[C@H]1C[C@@H](Nc2ncncc2C(=O)c2cc3c(s2)CCC32NCC3(CC3)c3ccc(Cl)cc32)C[C@@H]1O` (stereo partly drawn) [Compound 81] as the compound, how does the IC50 read?
Its IC50 is 50 to 200 nM.

Which IC50 does the source give for `NS(=O)(=O)OC[C@H]1C[C@@H](Nc2ncncc2C(=O)c2cc3c(s2)CCC32NCCc3cc(F)c(Cl)c(F)c32)C[C@@H]1O` (stereo partly drawn) [Compound 74] here?
The IC50 was 50 to 200 nM.

For `COc1cc2c(cc1Cl)[C@@]1(CCc3sc(C(=O)c4cncnc4N[C@@H]4C[C@H](COS(N)(=O)=O)[C@@H](O)C4)cc31)NCC2` [Compound 232], which IC50 is on record?
Its IC50 is 50 to 200 nM.

Which IC50 does the source give for `NS(=O)(=O)OC[C@H]1C[C@@H](Nc2ncncc2C(=O)c2cc3c(s2)CSC[C@]32NCCc3ccccc32)C[C@@H]1O` [Compound 87] here?
Its IC50 is 50 to 200 nM.

How did the IC50 turn out when `NS(=O)(=O)OC[C@H]1C[C@@H](Nc2ncncc2C(=O)c2cc3c(s2)OC[C@@]32NCCc3ccc(Cl)cc32)C[C@@H]1O` [Compound 62] was run?
The IC50 was over 200 nM.

Which IC50 does the source give for `NS(=O)(=O)OC[C@H]1C[C@@H](Nc2ncncc2C(=O)c2cc3c(s2)CCC[C@]32NCCc3cc(F)c(F)cc32)C[C@@H]1O` [Compound 206] here?
Its IC50 is at most 50 nM.

Which IC50 does the source give for `NS(=O)(=O)OC[C@H]1C[C@@H](Nc2ncncc2C(=O)c2cc3c(s2)CSC[C@]32NCCc3cnc(Cl)cc32)C[C@@H]1O` [Compound 144] here?
Its IC50 is at most 50 nM.

With `NS(=O)(=O)OC[C@H]1C[C@@H](Nc2ncncc2C(=O)c2nc3c(s2)CSC[C@@]32NCCc3ccc(Cl)cc32)C[C@@H]1O` [Compound 128] as the compound, how does the IC50 read?
The IC50 was over 200 nM.

With `NS(=O)(=O)OC[C@H]1C[C@@H](Nc2ncncc2C(=O)c2cc3c(s2)CCCC32NCCc3cnc(Cl)cc32)C[C@@H]1O` (stereo partly drawn) [Compound 133] as the compound, how does the IC50 read?
Its IC50 is 50 to 200 nM.

For `NS(=O)(=O)OC[C@H]1C[C@@H](Nc2ncncc2C(=O)c2cc3c(s2)CSC[C@]32NCCc3ccc(Cl)nc32)C[C@@H]1O` [Compound 147], which IC50 is on record?
Its IC50 is at most 50 nM.

`NS(=O)(=O)OC[C@H]1C[C@@H](Nc2ncncc2C(=O)c2cc3c(s2)C(F)=C[C@]32NCCc3ccc(Cl)cc32)C[C@@H]1O` [Compound 156] was tested. Which IC50 did it give?
The IC50 was at most 50 nM.

`NS(=O)(=O)OC[C@H]1C[C@@H](Nc2ncncc2C(=O)c2cc3c(s2)CCC32NCCc3cc(Cl)c(F)cc32)C[C@@H]1O` (stereo partly drawn) [Compound 75] was tested. Which IC50 did it give?
Its IC50 is 50 to 200 nM.

`NS(=O)(=O)OC[C@H]1C[C@@H](Nc2ncncc2C(=O)c2cc3c(s2)CCCC32OCCc3ccc(Cl)cc32)C[C@@H]1O` (stereo partly drawn) [Compound 42] was tested. Which IC50 did it give?
Its IC50 is at most 50 nM.

For `N#Cc1ccc2c(c1)C1(CCc3sc(C(=O)c4cncnc4N[C@@H]4C[C@H](COS(N)(=O)=O)[C@@H](O)C4)cc31)OCC2` (stereo partly drawn) [Compound 286], which IC50 is on record?
Its IC50 is 50 to 200 nM.

Same assay, conditions: 6 h incubation, numeric values, read-out: SUMO IF IC50

`NS(=O)(=O)OC[C@H]1C[C@@H](Nc2ncncc2C(=O)c2cc3c(s2)C=C[C@@]32NCCc3ccc(Cl)cc32)C[C@@H]1O` [Compound 175] was tested. Which IC50 did it give?
Its IC50 is over 1000 nM.

Which IC50 does the source give for `[2H]C1([2H])Cc2ccc(Cl)cc2[C@]2(CCCc3sc(C(=O)c4cncnc4N[C@@H]4C[C@H](COS(N)(=O)=O)[C@@H](O)C4)cc32)N1` [Compound 197] here?
Its IC50 is over 1000 nM.

With `CCN1Cc2sc(C(=O)c3cncnc3N[C@@H]3C[C@H](COS(N)(=O)=O)[C@@H](O)C3)cc2[C@@]2(C1)NCCc1ccc(Cl)cc12` [Compound 182] as the compound, how does the IC50 read?
The IC50 was over 1000 nM.

How did the IC50 turn out when `NS(=O)(=O)OC[C@H]1C[C@@H](Nc2ncncc2C(=O)c2cc3c(s2)CN(C2CC2)C[C@]32NCCc3ccc(Cl)cc32)C[C@@H]1O` [Compound 117] was run?
The IC50 was 19.1 nM.

From patent US20260035382A1, “COMPOUNDS AS SUMO ACTIVATING ENZYME INHIBITORS” (WIGEN BIOMEDICINE TECHNOLOGY (SHANGHAI) CO., LTD., priority 2022, published 2026)
